Data: patent US20120010206A1, “IMIDAZOLOPYRIDINE COMPOUNDS USEFUL FOR THE TREATMENT OF DEGENERATIVE AND INFLAMMATORY DISEASES” (priority 2006, published 2012)

How the values were obtained:
[1] = system: MMP1 expression from activated SFs (RASF); test: MMP assay: MMP1 expression (ELISA) by TNF-α-triggered RASFs; type: cell-based; settings: RASF triggered with TNFα, MMP1 ELISA after 48 hrs, semi-quantitative score
Summary of the method: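 Rheumatoid arthritis synovial fibroblasts (passage 10–12) were preincubated 90 min with compound in M199 with 1% FBS, then stimulated with TNF-α (10 ng/mL final) or complex trigger (12.5% final) for 48 h. MMP1 in the supernatant was quantified by sandwich luminescence ELISA. Controls were stimulated cells with 0.2% DMSO vehicle and unstimulated cells.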

TAK1-TAB1 fusion protein = molecular target: T1, TAK1-TAB1 fusion protein (Homo sapiens, UniProt O43318); test: In vitro TAK1 kinase assay (33P-ATP, casein substrate); type: biochemical; settings: semi-quantitative score, at least two independent experiments
T1 construct: purchased Upstate 14-600
T1 sequence (O43318 with tags, fused parts or gaps limits assumed): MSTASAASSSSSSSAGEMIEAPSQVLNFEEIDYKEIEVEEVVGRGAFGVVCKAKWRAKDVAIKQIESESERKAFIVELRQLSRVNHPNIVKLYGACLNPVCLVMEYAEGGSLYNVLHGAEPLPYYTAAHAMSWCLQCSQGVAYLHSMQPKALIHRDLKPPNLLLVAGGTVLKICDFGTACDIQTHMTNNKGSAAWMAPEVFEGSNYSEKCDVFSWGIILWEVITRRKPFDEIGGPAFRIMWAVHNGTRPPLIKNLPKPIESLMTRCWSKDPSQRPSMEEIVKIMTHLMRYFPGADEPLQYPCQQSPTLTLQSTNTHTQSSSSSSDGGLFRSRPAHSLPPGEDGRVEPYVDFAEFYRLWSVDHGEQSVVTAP
Summary of the method: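 Radiometric assay with active TAK1-TAB1 fusion protein (0.5 mU), 0.1 mg/mL casein, ATP at 5 µM plus [33P]-γ-ATP, in 10 mM MOPS pH 7.0, 1 mM EDTA. Reactions ran 90 min at 30 °C, were stopped with phosphoric acid and filter-counted; percent inhibition from ≥2 experiments gave semi-quantitative potency scores.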

CS(=O)(=O)c1ccc(Nc2ccc(-c3cc[nH]c(=O)c3)n3ccnc23)cc1 [Compound 64]
EC50 [1]: 1000 to 3000 nM
IC50 (TAK1-TAB1 fusion protein): 101 to 1000 nM

O=c1cc(-c2ccc(Nc3ccc(N4CCOCC4)c(F)c3)c3nccn23)cc[nH]1 [Compound 65]
EC50 [1]: 101 to 1000 nM
IC50 (TAK1-TAB1 fusion protein): 101 to 1000 nM

NC(=O)c1ccc(-c2ccc(Nc3ccc(N4CCOCC4)c(F)c3)c3nccn23)cc1 [Compound 66]
EC50 [1]: 101 to 1000 nM
IC50 (TAK1-TAB1 fusion protein): 1000 to 3000 nM

NC(=O)c1ccc(-c2ccc(Nc3ccc(N4CCOCC4)c(F)c3)c3nccn23)cc1F [Compound 67]
EC50 [1]: 101 to 1000 nM
IC50 (TAK1-TAB1 fusion protein): > 3000 nM

O=c1cc(-c2ccc(Nc3ccc(N4CCOCC4)cc3)c3nccn23)cc[nH]1 [Compound 68]
EC50 [1]: 101 to 1000 nM
IC50 (TAK1-TAB1 fusion protein): 101 to 1000 nM

Fc1cc(Nc2ccc(-c3cn[nH]c3)n3ccnc23)ccc1N1CCOCC1 [Compound 69]
EC50 [1]: 1000 to 3000 nM
IC50 (TAK1-TAB1 fusion protein): 101 to 1000 nM

CC(=O)Nc1ccc(-c2ccc(Nc3ccc(N4CCN(C(C)C)CC4)cc3)c3nccn23)cc1 [Compound 70]
EC50 [1]: > 3000 nM
IC50 (TAK1-TAB1 fusion protein): > 3000 nM

CS(=O)(=O)c1ccc(Nc2ccc(-c3cn[nH]c3)n3ccnc23)cc1 [Compound 71]
EC50 [1]: 1000 to 3000 nM
IC50 (TAK1-TAB1 fusion protein): 101 to 1000 nM

CS(=O)(=O)c1ccc(Nc2ccc(-c3ccc(C(N)=O)c(F)c3)n3ccnc23)cc1 [Compound 72]
EC50 [1]: 1000 to 3000 nM
IC50 (TAK1-TAB1 fusion protein): 1000 to 3000 nM

NC(=O)c1ccc(-c2ccc(Nc3ccc(N4CCOCC4)c(F)c3)c3nccn23)cc1Cl [Compound 73]
EC50 [1]: 101 to 1000 nM
IC50 (TAK1-TAB1 fusion protein): > 3000 nM

CC(C)N1CCN(c2ccc(Nc3ccc(-c4cc[nH]c(=O)c4)n4ccnc34)cc2)CC1 [Compound 74]
EC50 [1]: 101 to 1000 nM
IC50 (TAK1-TAB1 fusion protein): < 100 nM

CC(C)N1CCN(c2ccc(Nc3ccc(-c4cccc5[nH]ccc45)n4ccnc34)cc2)CC1 [Compound 75]
EC50 [1]: > 3000 nM
IC50 (TAK1-TAB1 fusion protein): 101 to 1000 nM

CCCN1CCN(c2ccc(Nc3ccc(-c4ccc(C(N)=O)cc4)n4ccnc34)cc2)CC1 [Compound 76]
EC50 [1]: 101 to 1000 nM
IC50 (TAK1-TAB1 fusion protein): 101 to 1000 nM

NC(=O)c1ccc(-c2ccc(Nc3ccc(N4CCN(C5CCCCC5)CC4)cc3)c3nccn23)cc1 [Compound 77]
EC50 [1]: 1000 to 3000 nM
IC50 (TAK1-TAB1 fusion protein): 101 to 1000 nM

NC(=O)c1ccc(-c2ccc(Nc3ccc(N4CCN(C5CCC5)CC4)cc3)c3nccn23)cc1 [Compound 78]
EC50 [1]: > 3000 nM
IC50 (TAK1-TAB1 fusion protein): 101 to 1000 nM

CC(C)CCN1CCN(c2ccc(Nc3ccc(-c4ccc(C(N)=O)cc4)n4ccnc34)cc2)CC1 [Compound 79]
EC50 [1]: > 3000 nM
IC50 (TAK1-TAB1 fusion protein): 101 to 1000 nM

CCC(CC)N1CCN(c2ccc(Nc3ccc(-c4ccc(C(N)=O)cc4)n4ccnc34)cc2)CC1 [Compound 80]
EC50 [1]: > 3000 nM
IC50 (TAK1-TAB1 fusion protein): 101 to 1000 nM

CCN1CCN(c2ccc(Nc3ccc(-c4ccc(C(N)=O)cc4)n4ccnc34)cc2)CC1 [Compound 81]
EC50 [1]: 1000 to 3000 nM
IC50 (TAK1-TAB1 fusion protein): 101 to 1000 nM

c1cn2c(-c3cn[nH]c3)ccc(Nc3ccc(N4CCN(C5CCC5)CC4)cc3)c2n1 [Compound 82]
EC50 [1]: > 3000 nM
IC50 (TAK1-TAB1 fusion protein): 101 to 1000 nM

NC(=O)c1ccc(-c2ccc(Nc3ccc(N4CCN(C5CC5)CC4)cc3)c3nccn23)cc1 [Compound 83]
EC50 [1]: > 3000 nM
IC50 (TAK1-TAB1 fusion protein): 1000 to 3000 nM

CCCN1CCN(c2ccc(Nc3ccc(-c4cc[nH]c(=O)c4)n4ccnc34)cc2)CC1 [Compound 84]
EC50 [1]: 101 to 1000 nM
IC50 (TAK1-TAB1 fusion protein): 101 to 1000 nM

O=c1cc(-c2ccc(Nc3ccc(N4CCN(C5CCC5)CC4)cc3)c3nccn23)cc[nH]1 [Compound 85]
EC50 [1]: 101 to 1000 nM
IC50 (TAK1-TAB1 fusion protein): 101 to 1000 nM

CC(C)CCN1CCN(c2ccc(Nc3ccc(-c4cc[nH]c(=O)c4)n4ccnc34)cc2)CC1 [Compound 86]
EC50 [1]: 1000 to 3000 nM
IC50 (TAK1-TAB1 fusion protein): 101 to 1000 nM

CCC(CC)N1CCN(c2ccc(Nc3ccc(-c4cc[nH]c(=O)c4)n4ccnc34)cc2)CC1 [Compound 87]
EC50 [1]: 101 to 1000 nM
IC50 (TAK1-TAB1 fusion protein): 101 to 1000 nM

O=c1cc(-c2ccc(Nc3ccc(N4CCN(C5CC5)CC4)cc3)c3nccn23)cc[nH]1 [Compound 88]
EC50 [1]: 1000 to 3000 nM
IC50 (TAK1-TAB1 fusion protein): 1000 to 3000 nM

CCC(CC)N1CCN(c2ccc(Nc3ccc(-c4cn[nH]c4)n4ccnc34)cc2)CC1 [Compound 89]
EC50 [1]: > 3000 nM
IC50 (TAK1-TAB1 fusion protein): 101 to 1000 nM

O=c1cc(-c2ccc(Nc3ccc(N4CCN(C5CCCCC5)CC4)cc3)c3nccn23)cc[nH]1 [Compound 90]
EC50 [1]: 101 to 1000 nM
IC50 (TAK1-TAB1 fusion protein): 101 to 1000 nM

CCN1CCN(c2ccc(Nc3ccc(-c4cc[nH]c(=O)c4)n4ccnc34)cc2)CC1 [Compound 91]
EC50 [1]: 101 to 1000 nM
IC50 (TAK1-TAB1 fusion protein): 101 to 1000 nM

Cc1n[nH]c(C)c1-c1ccc(Nc2ccc(N3CCOCC3)cc2)c2nccn12 [Compound 92]
EC50 [1]: > 3000 nM
IC50 (TAK1-TAB1 fusion protein): > 3000 nM

CC(C)N1CCN(c2ccc(Nc3ccc(-c4cccc(O)c4)n4ccnc34)cc2)CC1 [Compound 94]
EC50 [1]: > 3000 nM
IC50 (TAK1-TAB1 fusion protein): > 3000 nM

COc1cc(-c2ccc(Nc3ccc(N4CCN(C(C)C)CC4)cc3)c3nccn23)ccc1O [Compound 95]
EC50 [1]: > 3000 nM
IC50 (TAK1-TAB1 fusion protein): 101 to 1000 nM

CC(C)N1CCC(c2ccc(Nc3ccc(-c4cc[nH]c(=O)c4)n4ccnc34)cc2)CC1 [Compound 96]
EC50 [1]: 1000 to 3000 nM
IC50 (TAK1-TAB1 fusion protein): 101 to 1000 nM

CC(C)N1CCN(c2ccc(Nc3ccc(-c4cc[nH]c(=O)c4)n4ccnc34)cc2C(F)(F)F)CC1 [Compound 106, 4-{8-[4-(4-Isopropyl-piperazin-1-yl)-3-trifluoromethyl-phenylamino]-imidazo[1,2-a]pyridin-5-yl}-1H-pyridin-2-one]
EC50 [1]: 101 to 1000 nM
IC50 (TAK1-TAB1 fusion protein): > 3000 nM

O=c1cc(-c2ccc(Nc3ccc(C4CCN(CC(F)F)CC4)cc3)c3nccn23)cc[nH]1 [Compound 107, 4-(8-{4-[1-(2,2-Difluoro-ethyl)-piperidin-4-yl]-phenylamino)-imidazo[1,2-a]pyridin-5-yl)-1H-pyridin-2-one]
EC50 [1]: 1000 to 3000 nM
IC50 (TAK1-TAB1 fusion protein): 1000 to 3000 nM

O=c1cc(-c2ccc(Nc3ccc(C4CCN(CCF)CC4)cc3)c3nccn23)cc[nH]1 [Compound 108, 4-(8-{4-[1-(2-Fluoro-ethyl)-piperidin-4-yl]-phenylamino}-imidazo[1,2-a]pyridin-5-yl)-1H-pyridin-2-one]
EC50 [1]: 1000 to 3000 nM
IC50 (TAK1-TAB1 fusion protein): 101 to 1000 nM

FC(F)CN1CCN(c2ccc(Nc3ccc(-c4cn[nH]c4)n4ccnc34)cc2)CC1 [Compound 109, {4-[4-(2,2-Difluoro-ethyl)-piperazin-1-yl]-phenyl}-[5-(1H-pyrazol-4-yl)-imidazo[1,2-a]pyridin-8-yl]-amine]
EC50 [1]: 101 to 1000 nM
IC50 (TAK1-TAB1 fusion protein): 1000 to 3000 nM

c1cn2c(-c3cn[nH]c3)ccc(Nc3ccc(N4CCSCC4)cc3)c2n1 [Compound 111, [5-(1H-Pyrazol-4-yl)-imidazo[1,2-a]pyridin-8-yl]-(4-thiomorpholin-4-yl-phenyl)-amine]
EC50 [1]: 101 to 1000 nM
IC50 (TAK1-TAB1 fusion protein): 1000 to 3000 nM

O=c1cc(-c2ccc(Nc3ccc(N4CCC(N5CCCCC5)CC4)cc3)c3nccn23)cc[nH]1 [Compound 120, 4-[8-(4-[1,4′]Bipiperidinyl-1′-yl-phenylamino)-imidazo[1,2a]pyridi-5-yl]-1H-pyridin-2-one]
EC50 [1]: 101 to 1000 nM
IC50 (TAK1-TAB1 fusion protein): 101 to 1000 nM

CC1CN(c2ccc(Nc3ccc(-c4cc[nH]c(=O)c4)n4ccnc34)cc2)CC(C)N1 (stereo not drawn) [Compound 124, 4-{8-[4-(3,5-Dimethyl-piperazin-1-yl)-phenylamino]-imidazo[1,2-a]pyridin-5-yl}-1H-pyridin-2-one]
EC50 [1]: 1000 to 3000 nM
IC50 (TAK1-TAB1 fusion protein): 101 to 1000 nM
